Results reported in patent publication US20110166156A1, “Prodrugs for the Treatment of Schizophrenia and Bipolar Disease” (Alkermes, Inc., priority 2010, published 2011).

Experiment: Pharmacokinetic evaluation of paliperidone prodrugs in rats, intramuscular administration (Study 1 and Study 2)
Assay type: in vivo, Sprague-Dawley rats
Conditions: male rats, IM, milled crystalline suspension, plasma by LC-MS/MS; for Cmax: combined Study 1 and Study 2, compared in The FIGURE with the other prodrugs tested; for Tmax: combined Study 1 and Study 2, shown in The FIGURE
Description: Two PK studies were conducted using intramuscular (IM) administration in rats of water-insoluble paliperidone prodrugs and the results were combined in The FIGURE.
Animals: 18 Male Sprague-Dawley rats (Charles River Laboratories, Wilmington, Mass.) were used in the study. Three groups of 6 rats were used and are referred to in this study as Groups A, B and C. Rats were approximately 350-375 g at time of arrival. Rats are housed 2 per cage with ad libitum chow and water. Environmental conditions in the housing room: 64-67° F., 30% to 70% relative humidity, and 12:12-h light:dark cycle. All experiments were approved by the institutional animal care and use committee.
Pharmacokinetics study: Rats were dosed IM by means of a 23 gauge, 1 inch needle with 1 cc syringe 0.3 mL suspension was withdrawn from the vial containing the test compound in suspension. The rat was injected in the muscles of the hind limb after anesthesia with isoflurane. Blood samples were collected via a lateral tail vein after brief anesthesia with Isoflurane. A 27½ G needle and 1 cc syringe without an anticoagulant was used for the blood collection. Approximately 35 0 μL of whole blood was collected at each sampling time point of 6 hours, 24 hours and 2, 5, 7, 9, 12, 14, 21, 28, 35 days after administration. Once collected, whole blood was immediately transferred to tubes containing K2 EDTA, inverted 10-15 times and immediately placed on ice. The tubes were centrifuged for 2 minutes at >14,000 g's (11500 RPMs using Eppendorf Centrifuge 5417C, F45-30-11 rotor) at room temperature to separate plasma. Plasma samples were transferred to labeled plain tubes (MICROTAINER®) and stored frozen at <−70° C.
(§1) Data Analysis: Drug concentrations in plasma samples were analyzed by liquid chromatography-mass spectroscopy (LC-MS/MS) using appropriate parameters for each compound. Half-life of Paliperidone, maximal concentration (Cmax), time to maximal concentration (Tmax), and AUC were calculated by using WinNonlin version 5.2 software (Pharsight, St. Louis, Mo.).
Pharmacokinetics study: Rats were dosed IM by means of a 23 gauge, 1 in. needle with 1 cc syringe 0.3 mL suspension was withdrawn from the vial containing the test compound in suspension. The rat was injected in the muscles of the hind limb after anesthesia with isoflurane. Blood samples were collected via a lateral tail vein after brief anesthesia with Isoflurane. […]
as §1, with “Half-life,” for “Half-life of Paliperidone,”, “concentration,” for “concentration (Cmax),”, “concentration” for “concentration (Tmax),”, “Mo.). […]” for “Mo.).”

Compound | Cmax | Tmax
CCCCCCCCCCCCCCCC(=O)OCOC1CCCn2c1nc(C)c(CCN1CCC(c3noc4cc(F)ccc34)CC1)c2=O (stereo not shown) [Compound 157] | lower than that of the other compounds | delayed
CCCCCCCCCCCCCCCC(=O)OC1CCCn2c1nc(C)c(CCN1CCC(c3noc4cc(F)ccc34)CC1)c2=O (stereo not shown) [PP, Paliperidone Palmitate] | lower than that of the other compounds | delayed
